Assay results from patent US20110045101A1, “FUNGICIDAL SUBSTITUTED AZOLES” (E.I. Du Pont De Nemours and Company, priority 2009, published 2011).
Marks after values point to notes of the source that are not given here.

Experiments:
Assay type in all cases: in vivo
Settings in all cases: 100 = 100% disease control
Alternaria solani = assay: Test D: tomato early blight, sprayed the day before inoculation, visual disease rating
Outline: (§1)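 Spray suspension: acetone 3% of final volume, then 50/50 acetone/water plus 250 ppm Trem® 014. Applied to run-off on seedlings at 200 ppm (≈500 g/ha); starred entries tested at 40 ppm.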

[1] = system: Puccinia recondita f. sp. tritici; assay: Test H: wheat leaf rust, test suspension sprayed after inoculation of wheat seedlings, visual disease rating
Outline: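 Wheat seedlings inoculated with P. recondita spores, held 24 h saturated at 20 °C, then 2 days in growth chamber at 20 °C; compound suspension (acetone/water with Trem 014) sprayed to run-off afterwards. Rated visually; 200 ppm (≈500 g/ha) unless marked *, which denotes 40 ppm.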

Botrytis cinerea = assay: Test C: tomato Botrytis on tomato seedlings, sprayed the day before inoculation, visual disease rating
Outline: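 Spray to run-off on tomato seedlings; test conc. 200 ppm (≈500 g/ha), some entries 40 ppm. Formulation: acetone 3% of final vol., then acetone/water 50:50 + 250 ppm polyhydric alcohol ester surfactant.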

[2] = system: Puccinia recondita f. sp. tritici; assay: Test I: wheat leaf rust on wheat seedlings, sprayed the day before inoculation, visual disease rating
Outline: as §1

Septoria nodorum = assay: Test F: wheat glume blotch on wheat seedlings, sprayed the day before inoculation, visual disease rating
Outline: as §1

Septoria tritici = assay: Test G: wheat leaf blotch on wheat seedlings, sprayed the day before inoculation, visual disease rating
Outline: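 Disease was rated visually after Septoria tritici inoculation, 48 h saturated incubation at 24°C and 19 days in a 20°C growth chamber. Inoculation followed one day after run-off spraying of seedlings with compound at 200 ppm (≈500 g/ha) or, where marked, 40 ppm, formulated in acetone/water with surfactant.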

[3] = system: Erysiphe graminis f. sp. tritici; assay: Test J: wheat powdery mildew on wheat seedlings, sprayed the day before inoculation, visual disease rating
Outline: as §1

[4] = 200 ppm, 0 = no control relative to controls

SMILES | Test D disease control rating (Alternaria solani; [4]) [%] | Test H disease control rating [1, 4] [%] | Test C disease control rating (Botrytis cinerea; [4]) [%] | Test I disease control rating [2, 4] [%] | Test F disease control rating (Septoria nodorum; [4]) [%] | Test G disease control rating (Septoria tritici; [4]) [%] | Test J disease control rating [3, 4] [%] | Test D disease control rating (Alternaria solani; 40 ppm (marked *)) | Test H disease control rating ([1]; 40 ppm (marked *)) | Test C disease control rating (Botrytis cinerea; 40 ppm (marked *)) | Test I disease control rating ([2]; 40 ppm (marked *)) | Test F disease control rating (Septoria nodorum; 40 ppm (marked *)) | Test G disease control rating (Septoria tritici; 40 ppm (marked *)) | Test J disease control rating ([3]; 40 ppm (marked *))
Cc1nc(Cl)c(-c2c(F)cc(F)cc2F)n1-c1cccc(OC(F)F)c1 [compound 609] | 100 | 100 | 99 | 100 | 100 | 99 | 100 |  |  |  |  |  |  | 
Cc1nc(Cl)c(-c2c(F)cc(F)cc2F)n1-c1ccc(OC(F)F)cc1 [compound 610] | 100 | 100 | 99 | 100 | 99 | 99 | 100 |  |  |  |  |  |  | 
Cc1nc(Cl)c(-c2c(F)cc(F)cc2F)n1-c1cccc(OC(F)(F)F)c1 [compound 611] | 66 | 0 | 91 | 16 | 0 | 81 | 57 |  |  |  |  |  |  | 
Cc1nc(Cl)c(-c2c(F)cc(F)cc2F)n1-c1ccc(OC(F)(F)F)cc1 [compound 612] | 100 | 0 | 99 | 8 | 60 | 96 | 100 |  |  |  |  |  |  | 
COc1cc(F)c(-c2c(Cl)nc(C)n2-c2ccc(C)c(C#N)c2)c(F)c1 [compound 613] |  |  |  |  |  |  |  | 100* % | 15* % | 99* % | 97* % | 64* % | 99* % | 21* %
COC(=O)c1ccc(-n2cnc(Cl)c2-c2c(F)cccc2F)cc1 [compound 614] |  |  |  |  |  |  |  | 0* % | 0* % | 89* % | 28* % | 0* % | 92* % | 0* %
COc1ccc(F)c(-c2c(Cl)nc(C)n2-c2ccc(C#N)cc2)c1F [compound 615] | 100 | 0 | 100 | 99 | 0 | 100 | 100 |  |  |  |  |  |  | 
COc1ncccc1-n1c(Cl)nc(Cl)c1-c1c(F)cccc1F [compound 616] | 0 | 0 | 100 | 98 | 0 | 99 | 99 |  |  |  |  |  |  | 
Fc1cccc(F)c1-c1c(Cl)nc(Cl)n1-c1cccnc1Cl [compound 617] | 99 | 100 | 99 | 100 | 0 | 100 | 99 |  |  |  |  |  |  | 
Fc1cccc(F)c1-c1c(Br)nc(Br)n1-c1cccnc1Cl [compound 618] | 85 | 99 | 98 | 99 | 0 | 98 | 97 |  |  |  |  |  |  | 
COc1nc(Cl)ccc1-n1c(Cl)nc(Cl)c1-c1c(F)cccc1F [compound 619] | 53 | 51 | 99 | 98 | 0 | 96 | 99 |  |  |  |  |  |  | 
COc1ccc(-n2c(Cl)nc(Cl)c2-c2c(F)cccc2F)c(Cl)n1 [compound 620] | 99 | 100 | 100 | 100 | 90 | 98 | 99 |  |  |  |  |  |  | 
COc1ccc(-n2c(Cl)nc(Cl)c2-c2c(F)cccc2F)cn1 [compound 621] | 100 | 100 | 100 | 100 | 99 | 98 | 100 |  |  |  |  |  |  | 
COc1ccc(-n2c(Br)nc(Br)c2-c2c(F)cccc2F)cn1 [compound 622] | 100 | 100 | 100 | 100 | 99 | 99 | 100 |  |  |  |  |  |  | 
Fc1cccc(-n2cnc(Cl)c2-c2c(F)ccc(Br)c2F)c1 [compound 623] | 33 | 0 | 98 | 98 | 0 | 97 | 100 |  |  |  |  |  |  | 
COc1cc(F)c(-c2c(Cl)nnn2-c2ccc(Cl)cc2)c(F)c1 [compound 626] | 99 | 17 | 99 | 79 | 0 | 100 | 97 |  |  |  |  |  |  | 
COc1cc(F)c(-c2c(Br)nnn2-c2ccc(Cl)cc2)c(F)c1 [compound 627] | 99 | 40 | 99 | 95 | 0 | 99 | 98 |  |  |  |  |  |  | 
COc1cc(F)c(-c2c(C)nnn2-c2ccc(Cl)cc2)c(F)c1 [compound 628] | 100 | 0 | 99 | 99 | 0 | 100 | 99 |  |  |  |  |  |  | 
Cc1ccc(-n2c(C)nc(Cl)c2-c2c(F)cc(OC(F)F)cc2F)cc1 [compound 631] | 99 | 40 | 99 | 99 | 0 | 100 | 100 |  |  |  |  |  |  | 
COC(=O)c1ccc(-n2cnc(N(C)C)c2-c2c(F)cccc2F)cc1 [compound 633] |  |  |  |  |  |  |  | 0* % | 0* % | 0* % | 44* % | 0* % | 0* % | 0* %
CN(C)c1ccc(-n2cnc(N(C)C)c2-c2c(F)cccc2F)cc1 [compound 634] |  |  |  |  |  |  |  | 0* % | 0* % | 0* % | 0* % | 0* % | 0* % | 0* %
CN(C)c1ccc(-n2cnc(Cl)c2-c2c(F)cccc2F)cc1 [compound 635] |  |  |  |  |  |  |  | 0* % | 0* % | 99* % | 39* % | 0* % | 81* % | 0* %
CC(=O)Nc1ccc(-n2c(Cl)nc(Cl)c2-c2c(F)cccc2F)cc1Cl [compound 636] |  |  |  |  |  |  |  | 24* % | 0* % | 90* % | 52* % | 0* % | 95* % | 0* %
CC(=O)Nc1ccc(-n2c(Cl)nc(Cl)c2-c2c(F)cccc2F)cc1 [compound 637] |  |  |  |  |  |  |  | 0* % | 0* % | 97* % | 65* % | 0* % | 92* % | 0* %
COc1cc(F)c(-c2c(Cl)nc(N)n2-c2ccc(Cl)cc2)c(F)c1 [compound 638] | 99 | 0 | 99 | 95 | 55 | 99 | 56 |  |  |  |  |  |  | 
